This passage reports melting point results from patent publication US7166738B2, “Non-nucleoside reverse transcriptase inhibitors” (Roche Palo Alto LLC, priority 2004, dated 2007).

The melting point is the temperature, or range, at which the solid turns liquid.

Each structure is given as a SMILES string.

`Cc1ccc(CC(=O)Nc2ccccc2Cl)c(F)c1Oc1cc(C#N)cc(C(F)F)c1` [Compound I-86, N-(2-Chloro-phenyl)-2-[3-(3-cyano-5-difluoromethyl-phenoxy)-2-fluoro-4-methyl-phenyl]-acetamide]: the melting point lay within 163.3 to 164.4 °C.

Compound `N#Cc1cc(Oc2cc(CC(=O)Nc3ccc(S(N)(=O)=O)cc3)ccc2Cl)cc(C(F)(F)F)c1` [Compound I-88, 2-[4-Chloro-3-(3-cyano-5-trifluoromethyl-phenoxy)-phenyl]-N-(4-sulfamoyl-phenyl)-acetamide] gave a melting point of 219 to 221.4 °C.

With `Cc1cc(S(N)(=O)=O)ccc1NC(=O)Cc1ccc(Cl)c(Oc2cc(C#N)cc(C(F)(F)F)c2)c1` [Compound I-89, 2-[4-Chloro-3-(3-cyano-5-trifluoromethyl-phenoxy)-phenyl]-N-(2-methyl-4-sulfamoyl-phenyl)-acetamide], the melting point is 211.6 to 214.6 °C.

Consider `N#Cc1cc(Oc2cc(CC(=O)Nc3ccc(S(N)(=O)=O)cc3Cl)ccc2Cl)cc(C(F)(F)F)c1` [Compound I-90, 2-[4-Chloro-3-(3-cyano-5-trifluoromethyl-phenoxy)-phenyl]-N-(2-chloro-4-sulfamoyl-phenyl)-acetamide], for which the melting point fell in the range of 198 to 202 °C.

`CCc1ccc(CC(=O)Nc2ccc(S(N)(=O)=O)cc2)cc1Oc1cc(C#N)cc(C(F)F)c1` [Compound I-91, 2-[3-(3-Cyano-5-difluoromethyl-phenoxy)-4-ethyl-phenyl]-N-(4-sulfamoyl-phenyl)-acetamide]: the melting point lay in the range of 188 to 198 °C.

Consider `COc1ccc(CC(=O)Nc2ccc(S(N)(=O)=O)cc2)cc1Oc1cc(C#N)cc(C(F)F)c1` [Compound I-92, 2-[3-(3-Cyano-5-difluoromethyl-phenoxy)-4-methoxy-phenyl]-N-(4-sulfamoyl-phenyl)-acetamide], for which the melting point fell in the range of 213.9 to 214.2 °C.

For the compound `COc1ccc(CC(=O)Nc2ccc(S(N)(=O)=O)cc2C)cc1Oc1cc(C#N)cc(C(F)F)c1` [Compound I-93, 2-[3-(3-Cyano-5-difluoromethyl-phenoxy)-4-methoxy-phenyl]-N-(2-methyl-4-sulfamoyl-phenyl)-acetamide], the melting point lay within 175 to 177.2 °C.

As for `COc1ccc(CC(=O)Nc2ccc(S(N)(=O)=O)cc2Cl)cc1Oc1cc(C#N)cc(C(F)F)c1` [Compound I-94, N-(2-Chloro-4-sulfamoyl-phenyl)-2-[3-(3-cyano-5-difluoromethyl-phenoxy)-4-methoxy-phenyl]-acetamide], the melting point is 185 to 187.9 °C.

`CC(F)(F)c1cc(C#N)cc(Oc2c(Cl)ccc(CC(=O)Nc3ccc(S(N)(=O)=O)cc3)c2F)c1` [Compound I-95, 2-{4-Chloro-3-[3-cyano-5-(1,1-difluoro-ethyl)-phenoxy]-2-fluoro-phenyl}-N-(4-sulfamoyl-phenyl)-acetamide]: the melting point lay in the range of 207 to 209.8 °C.

`Cc1cc(S(N)(=O)=O)ccc1NC(=O)Cc1ccc(Cl)c(Oc2cc(C#N)cc(C(C)(F)F)c2)c1F` [Compound I-96, 2-{4-Chloro-3-[3-cyano-5-(1,1-difluoro-ethyl)-phenoxy]-2-fluoro-phenyl}-N-(2-methyl-4-sulfamoyl-phenyl)-acetamide] yielded a melting point of 198.5 to 201 °C.

The compound `CC(F)(F)c1cc(C#N)cc(Oc2c(Cl)ccc(CC(=O)Nc3ccc(S(N)(=O)=O)cc3Cl)c2F)c1` [Compound I-97, 2-{4-Chloro-3-[3-cyano-5-(1,1-difluoro-ethyl)-phenoxy]-2-fluoro-phenyl}-N-(2-chloro-4-sulfamoyl-phenyl)-acetamide] showed a melting point of 192 to 197.6 °C.

Consider `CCC(=O)N(C)S(=O)(=O)c1ccc(NC(=O)Cc2ccc(Cl)c(Oc3cc(Cl)cc(C#N)c3)c2F)c(C)c1` [Compound I-99, 2-[4-Chloro-3-(3-chloro-5-cyano-phenoxy)-2-fluoro-phenyl]-N-[2-methyl-4-(methyl-propionyl-sulfamoyl)-phenyl]-acetamide], for which the melting point lay in the range of 212 to 216.9 °C.

In turn, `N#Cc1cc(Cl)cc(Oc2c(Cl)ccc(CC(=O)Nc3ccc(S(N)(=O)=O)cc3Cl)c2F)c1` [Compound I-100, 2-[4-Chloro-3-(3-chloro-5-cyano-phenoxy)-2-fluoro-phenyl]-N-(2-chloro-4-sulfamoyl-phenyl)-acetamide] gave a melting point of 234.4 to 234.9 °C.

In turn, `COc1cc(CC(=O)Nc2ccc(S(N)(=O)=O)cc2)cc(Oc2cc(C#N)ccc2Cl)c1` [Compound I-102, 2-[3-(2-Chloro-5-cyano-phenoxy)-5-methoxy-phenyl]-N-(4-sulfamoyl-phenyl)-acetamide] showed a melting point of 180.5 to 181.3 °C.

`COc1cc(CC(=O)Nc2ccc(S(N)(=O)=O)cc2C)cc(Oc2cc(C#N)ccc2Cl)c1` [Compound I-103, 2-[3-(2-Chloro-5-cyano-phenoxy)-5-methoxy-phenyl]-N-(2-methyl-4-sulfamoyl-phenyl)-acetamide] yielded a melting point of 179.8 to 184 °C.

`CCc1cc(CC(=O)Nc2ccc(S(N)(=O)=O)cc2C)cc(Oc2cc(C#N)ccc2Cl)c1` [Compound I-106, 2-[3-(2-Chloro-5-cyano-phenoxy)-5-ethyl-phenyl]-N-(2-methyl-4-sulfamoyl-phenyl)-acetamide] came in with a melting point of 231.6 to 233.1 °C.

Consider `CCc1cc(CC(=O)Nc2ccc(S(N)(=O)=O)cc2Cl)cc(Oc2cc(C#N)ccc2Cl)c1` [Compound I-107, 2-[3-(2-Chloro-5-cyano-phenoxy)-5-ethyl-phenyl]-N-(2-chloro-4-sulfamoyl-phenyl)-acetamide], for which the melting point is 204 to 207 °C.

In the case of `CNS(=O)(=O)c1ccc(NC(=O)Cc2ccc(Cl)c(Oc3cc(Cl)cc(C#N)c3)c2F)c(C)c1` [Compound I-108, 2-[4-Chloro-3-(3-chloro-5-cyano-phenoxy)-2-fluoro-phenyl]-N-(2-methyl-4-methylsulfamoyl-phenyl)-acetamide], the melting point lay in the range of 204.4 to 207.3 °C.

`CN(C(=O)Cc1ccc(Cl)c(Oc2cc(Cl)cc(C#N)c2)c1F)c1ccccc1Cl` [Compound I-111, 2-[4-Chloro-3-(3-chloro-5-cyano-phenoxy)-2-fluoro-phenyl]-N-(2-chloro-phenyl)-N-methyl-acetamide]: the melting point lay within 134 to 137.1 °C.

With `Cc1ccc(CC(=O)Nc2ccc(S(C)(=O)=O)cc2Cl)c(F)c1Oc1cc(C#N)cc(C(F)F)c1` [Compound I-112, N-(2-Chloro-4-methanesulfonyl-phenyl)-2-[3-(3-cyano-5-difluoromethyl-phenoxy)-2-fluoro-4-methyl-phenyl]-acetamide], the melting point lay within 179.9 to 182 °C.

`N#Cc1cc(Oc2c(F)c(CC(=O)Nc3ccc(S(N)(=O)=O)cc3)cc(Br)c2Br)cc(C(F)F)c1` [Compound I-114, 2-[4,5-Dibromo-3-(3-cyano-5-difluoromethyl-phenoxy)-2-fluoro-phenyl]-N-(4-sulfamoyl-phenyl)-acetamide] showed a melting point of 144 to 147 °C.

The compound `Cc1cc(S(=O)(=O)N2CCSCC2)ccc1NC(=O)Cc1ccc(C)c(Oc2cc(Cl)cc(C#N)c2)c1` [Compound I-117, 2-[3-(3-Chloro-5-cyano-phenoxy)-4-methyl-phenyl]-N-[2-methyl-4-(thiomorpholine-4-sulfonyl)-phenyl]-acetamide] came in with a melting point of 151.9 to 155.3 °C.

In turn, `Cc1cc(S(=O)(=O)NCCN2CCOCC2)ccc1NC(=O)Cc1ccc(C)c(Oc2cc(Cl)cc(C#N)c2)c1` [Compound I-118, 2-[3-(3-Chloro-5-cyano-phenoxy)-4-methyl-phenyl]-N-[2-methyl-4-(2-morpholin-4-yl-ethylsulfamoyl)-phenyl]-acetamide] yielded a melting point of 177 to 181 °C.

Take `Cc1cc(S(N)(=O)=O)ccc1NC(=O)Cc1ccc(Cl)c(Oc2cc(C#N)cc(C(F)(F)F)c2)c1F` [Compound I-120, 2-[4-Chloro-3-(3-cyano-5-trifluoromethyl-phenoxy)-2-fluoro-phenyl]-N-(2-methyl-4-sulfamoyl-phenyl)-acetamide]: the melting point lay in the range of 212 to 216.1 °C.

On to `Cc1cc(S(=O)(=O)NC2CCC(O)CC2)ccc1NC(=O)Cc1ccc(C)c(Oc2cc(Cl)cc(C#N)c2)c1` (stereo not shown) [Compound I-121, 2-[3-(3-Chloro-5-cyano-phenoxy)-4-methyl-phenyl]-N-[4-(4-hydroxy-cyclohexylsulfamoyl)-2-methyl-phenyl]-acetamide], for which the melting point lay in the range of 195.1 to 197.7 °C.

In turn, `Cc1cc(S(N)(=O)=O)ccc1NC(=O)Cc1ccc(C)c(Oc2cc(Cl)cc(C#N)c2)c1` [Compound I-122, 2-[3-(3-Chloro-5-cyano-phenoxy)-4-methyl-phenyl]-N-(2-methyl-4-sulfamoyl-phenyl)-acetamide] had a melting point of 192.8 to 194.1 °C.

In the case of `Cc1ccc(CC(=O)Nc2ccc(S(N)(=O)=O)cc2Cl)cc1Oc1cc(Cl)cc(C#N)c1` [Compound I-123, 2-[3-(3-Chloro-5-cyano-phenoxy)-4-methyl-phenyl]-N-(2-chloro-4-sulfamoyl-phenyl)-acetamide], the melting point fell in the range of 194 to 194.9 °C.

For `Cc1cc(C#N)cc(Oc2c(Cl)ccc(CC(=O)Nc3ccc(S(N)(=O)=O)cc3C)c2F)n1` [Compound I-124, 2-[4-Chloro-3-(4-cyano-6-methyl-pyridin-2-yloxy)-2-fluoro-phenyl]-N-(2-methyl-4-sulfamoyl-phenyl)-acetamide], the melting point fell in the range of 230.1 to 230.7 °C.

`Cc1cc(S(=O)(=O)CCC(=O)O)ccc1NC(=O)Cc1ccc(C)c(Oc2cc(Cl)cc(C#N)c2)c1` [Compound I-125, 3-(4-{2-[3-(3-Chloro-5-cyano-phenoxy)-4-methyl-phenyl]-acetylamino}-3-methyl-benzenesulfonyl)-propionic acid] displayed a melting point of 74.3 to 76.5 °C.

In turn, `Cc1cc(S(=O)(=O)NC2CCOCC2)ccc1NC(=O)Cc1ccc(C)c(Oc2cc(Cl)cc(C#N)c2)c1` [Compound I-128, 2-[3-(3-Chloro-5-cyano-phenoxy)-4-methyl-phenyl]-N-[2-methyl-4-(tetrahydro-pyran-4-ylsulfamoyl)-phenyl]-acetamide] came in with a melting point of 171.7 to 172.6 °C.

For the compound `Cc1cc(S(=O)(=O)NCC(C)O)ccc1NC(=O)Cc1ccc(C)c(Oc2cc(Cl)cc(C#N)c2)c1` (stereo not shown) [Compound I-129, 2-[3-(3-Chloro-5-cyano-phenoxy)-4-methyl-phenyl]-N-[4-(2-hydroxy-propylsulfamoyl)-2-methyl-phenyl]-acetamide], the melting point lay within 172.2 to 173.4 °C.
